Reference: ChEMBL document CHEMBL5465560, “Selectivity Literature for EUbOPEN Chemogenomic Library” (2024)
Values belong to the compound of their own block, whether it stands above or below them.

How the values were obtained:
[1] = target: Tyrosine-protein kinase Srms (Homo sapiens) (UniProt Q9H3Y6); test: Selectivity interaction (Ambit KINOMEscan and KiNATiv profiling in Jurkat cells) EUB0000090b SRMS; format: cell-based; conditions: at 1 µM
[2] = target: Ribosomal protein S6 kinase alpha-1 (Homo sapiens, UniProt Q15418); test: Selectivity interaction (Kinase panel (Invitrogen)) EUB0000639a RPS6KA1; conditions: at 200 nM
[3] = target: Mitogen-activated protein kinase 3 (Homo sapiens, UniProt P27361); test: Selectivity interaction (Rxn Biology Kinase assay) EUB0001632a MAPK3; conditions: at 10 µM
SRSF protein kinase 1 = SRSF protein kinase 1 (Homo sapiens, UniProt Q96SB4); test: Selectivity interaction (KinomeScan (DiscoverX)) EUB0000595a SRPK1; conditions: at 10 µM
[4] = target: Cyclin-dependent kinase-like 3 (Homo sapiens) (UniProt Q8IVW4); test: Selectivity interaction (KinomeScan (DiscoverX)) EUB0000229b CDKL3; conditions: at 10 µM
[5] = target: T1, MAP kinase-activated protein kinase 5 (Homo sapiens) (UniProt Q8IW41); test: Selectivity interaction (ProQinase) EUB0000171b MAPKAPK5
T1 sequence (whole entry): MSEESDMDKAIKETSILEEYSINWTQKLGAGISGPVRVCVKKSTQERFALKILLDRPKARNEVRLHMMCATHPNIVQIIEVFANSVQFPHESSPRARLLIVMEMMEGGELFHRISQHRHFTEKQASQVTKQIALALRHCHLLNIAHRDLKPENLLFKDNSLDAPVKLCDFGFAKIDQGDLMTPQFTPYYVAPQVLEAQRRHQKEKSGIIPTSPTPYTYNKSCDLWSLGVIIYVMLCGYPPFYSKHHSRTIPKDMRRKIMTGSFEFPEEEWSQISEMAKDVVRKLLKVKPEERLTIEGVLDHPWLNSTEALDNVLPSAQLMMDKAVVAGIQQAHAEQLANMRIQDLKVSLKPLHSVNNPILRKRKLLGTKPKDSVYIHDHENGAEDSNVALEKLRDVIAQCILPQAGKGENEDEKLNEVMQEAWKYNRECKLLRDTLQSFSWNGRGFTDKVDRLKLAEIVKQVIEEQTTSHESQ

[6] = target: Macrophage colony-stimulating factor 1 receptor (Homo sapiens) (UniProt P07333); test: Selectivity interaction (KinomeScan (DiscoverX)) EUB0000092b CSF1R; conditions: at 10 µM
[7] = tested on: Epidermal growth factor receptor (Homo sapiens), P00533 [L858R,T790M]; test: (§1) Selectivity interaction (KinomeScan (DiscoverX)) EUB0000092b EGFR; conditions: at 10 µM
[8] = target: T2, Epidermal growth factor receptor (Homo sapiens, UniProt P00533); test: as §1; conditions: at 10 µM
[9] = target: T3, Muscle, skeletal receptor tyrosine-protein kinase (Homo sapiens) (UniProt O15146); test: Selectivity interaction (Upstate Kinase Profiler service (Millipore)) EUB0000056c MUSK; conditions: at 1 µM
T3 sequence (whole entry): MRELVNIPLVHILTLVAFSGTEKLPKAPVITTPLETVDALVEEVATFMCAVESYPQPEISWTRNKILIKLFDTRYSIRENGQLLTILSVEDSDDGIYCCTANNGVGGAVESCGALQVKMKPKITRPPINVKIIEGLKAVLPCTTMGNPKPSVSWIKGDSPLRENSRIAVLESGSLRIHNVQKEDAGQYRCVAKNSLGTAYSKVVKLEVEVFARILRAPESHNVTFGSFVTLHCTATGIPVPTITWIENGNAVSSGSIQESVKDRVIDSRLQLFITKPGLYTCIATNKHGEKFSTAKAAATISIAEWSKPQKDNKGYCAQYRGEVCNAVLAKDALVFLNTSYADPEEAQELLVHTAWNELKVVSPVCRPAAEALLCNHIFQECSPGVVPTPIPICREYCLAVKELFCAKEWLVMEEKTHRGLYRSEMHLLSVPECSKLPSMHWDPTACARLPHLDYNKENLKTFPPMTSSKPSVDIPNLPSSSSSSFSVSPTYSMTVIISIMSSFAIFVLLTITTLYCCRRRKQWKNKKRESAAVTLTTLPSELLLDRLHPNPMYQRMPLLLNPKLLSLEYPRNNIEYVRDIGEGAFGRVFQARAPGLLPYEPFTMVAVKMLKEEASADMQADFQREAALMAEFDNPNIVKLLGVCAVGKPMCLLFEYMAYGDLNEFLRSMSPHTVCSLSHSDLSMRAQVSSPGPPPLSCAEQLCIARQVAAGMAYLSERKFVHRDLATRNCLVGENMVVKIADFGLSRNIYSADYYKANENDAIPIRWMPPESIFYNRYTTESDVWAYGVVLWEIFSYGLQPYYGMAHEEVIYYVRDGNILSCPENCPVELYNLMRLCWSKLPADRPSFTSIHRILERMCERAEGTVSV

[10] = tested on: Epidermal growth factor receptor (Homo sapiens), P00533 [G719C]; test: (§2) Selectivity interaction (KinomeScan (DiscoverX)) EUB0000655a EGFR; conditions: at 10 µM
[11] = tested on: Epidermal growth factor receptor (Homo sapiens), P00533 [G719S]; test: as §2; conditions: at 10 µM
[12] = tested on: Epidermal growth factor receptor (Homo sapiens), P00533 [L858R,T790M]; test: as §2; conditions: at 10 µM
[13] = tested on: Epidermal growth factor receptor (Homo sapiens), P00533 [L858R]; test: as §2; conditions: at 10 µM
[14] = tested on: Epidermal growth factor receptor (Homo sapiens), P00533 [L861Q]; test: as §2; conditions: at 10 µM
[15] = tested on: Epidermal growth factor receptor (Homo sapiens), P00533 [T790M]; test: as §2; conditions: at 10 µM
[16] = tested on: Epidermal growth factor receptor (Homo sapiens), P00533 [UNDEFINED MUTATION]; test: as §2; conditions: at 10 µM
[17] = target: T2, Epidermal growth factor receptor; test: as §2; conditions: at 10 µM
[18] = target: Casein kinase I isoform gamma-1 (Homo sapiens) (UniProt Q9HCP0); test: Selectivity interaction (KinomeScan (DiscoverX)) EUB0000655a CSNK1G1; conditions: at 10 µM
Sequence of Casein kinase I isoform gamma-1 (Homo sapiens) (Q9HCP0 whole entry, looked up, canonical isoform): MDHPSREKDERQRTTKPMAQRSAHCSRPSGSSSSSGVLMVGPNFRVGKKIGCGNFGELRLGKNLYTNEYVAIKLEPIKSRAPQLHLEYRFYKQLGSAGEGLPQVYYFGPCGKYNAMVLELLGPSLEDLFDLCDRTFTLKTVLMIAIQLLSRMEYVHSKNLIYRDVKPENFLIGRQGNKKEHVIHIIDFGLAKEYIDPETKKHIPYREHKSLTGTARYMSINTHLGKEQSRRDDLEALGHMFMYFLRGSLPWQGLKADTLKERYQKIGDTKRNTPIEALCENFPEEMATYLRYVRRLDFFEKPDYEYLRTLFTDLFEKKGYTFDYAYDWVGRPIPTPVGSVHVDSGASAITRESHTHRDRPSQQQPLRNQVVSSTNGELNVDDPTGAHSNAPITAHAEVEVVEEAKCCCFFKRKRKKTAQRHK

Sequence of Epidermal growth factor receptor (Homo sapiens), P00533 [L858R,T790M] (P00533 whole entry T790M/L858R, looked up): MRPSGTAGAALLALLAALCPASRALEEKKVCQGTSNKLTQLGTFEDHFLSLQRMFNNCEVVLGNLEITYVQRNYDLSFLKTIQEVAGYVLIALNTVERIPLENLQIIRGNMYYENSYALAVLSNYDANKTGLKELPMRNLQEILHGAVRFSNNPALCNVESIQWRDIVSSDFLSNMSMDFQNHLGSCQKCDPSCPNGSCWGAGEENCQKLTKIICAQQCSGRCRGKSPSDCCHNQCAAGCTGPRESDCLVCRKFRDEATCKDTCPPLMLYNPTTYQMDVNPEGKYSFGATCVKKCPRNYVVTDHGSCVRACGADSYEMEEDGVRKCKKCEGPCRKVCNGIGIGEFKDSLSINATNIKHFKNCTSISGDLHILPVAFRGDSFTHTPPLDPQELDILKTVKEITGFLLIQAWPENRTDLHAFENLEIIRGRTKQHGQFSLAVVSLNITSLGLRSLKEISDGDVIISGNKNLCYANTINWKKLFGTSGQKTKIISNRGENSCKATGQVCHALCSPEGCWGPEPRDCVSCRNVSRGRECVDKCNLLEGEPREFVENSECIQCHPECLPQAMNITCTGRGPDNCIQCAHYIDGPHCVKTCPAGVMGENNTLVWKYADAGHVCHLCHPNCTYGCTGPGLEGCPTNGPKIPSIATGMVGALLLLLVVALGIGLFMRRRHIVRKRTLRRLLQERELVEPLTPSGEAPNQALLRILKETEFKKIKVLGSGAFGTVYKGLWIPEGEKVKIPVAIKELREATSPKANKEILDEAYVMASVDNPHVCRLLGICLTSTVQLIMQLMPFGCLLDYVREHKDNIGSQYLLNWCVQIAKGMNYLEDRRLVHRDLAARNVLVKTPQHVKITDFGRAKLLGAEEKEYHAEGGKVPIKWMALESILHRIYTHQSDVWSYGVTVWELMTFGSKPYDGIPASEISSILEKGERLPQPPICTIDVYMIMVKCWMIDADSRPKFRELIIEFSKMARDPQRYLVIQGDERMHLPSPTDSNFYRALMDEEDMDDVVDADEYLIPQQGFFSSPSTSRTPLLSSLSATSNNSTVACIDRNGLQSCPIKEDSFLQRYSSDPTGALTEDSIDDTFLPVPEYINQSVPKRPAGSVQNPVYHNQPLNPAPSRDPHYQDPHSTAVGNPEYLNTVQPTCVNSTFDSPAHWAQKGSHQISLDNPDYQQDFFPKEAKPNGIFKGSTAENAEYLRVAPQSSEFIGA
T2 sequence (P00533 whole entry): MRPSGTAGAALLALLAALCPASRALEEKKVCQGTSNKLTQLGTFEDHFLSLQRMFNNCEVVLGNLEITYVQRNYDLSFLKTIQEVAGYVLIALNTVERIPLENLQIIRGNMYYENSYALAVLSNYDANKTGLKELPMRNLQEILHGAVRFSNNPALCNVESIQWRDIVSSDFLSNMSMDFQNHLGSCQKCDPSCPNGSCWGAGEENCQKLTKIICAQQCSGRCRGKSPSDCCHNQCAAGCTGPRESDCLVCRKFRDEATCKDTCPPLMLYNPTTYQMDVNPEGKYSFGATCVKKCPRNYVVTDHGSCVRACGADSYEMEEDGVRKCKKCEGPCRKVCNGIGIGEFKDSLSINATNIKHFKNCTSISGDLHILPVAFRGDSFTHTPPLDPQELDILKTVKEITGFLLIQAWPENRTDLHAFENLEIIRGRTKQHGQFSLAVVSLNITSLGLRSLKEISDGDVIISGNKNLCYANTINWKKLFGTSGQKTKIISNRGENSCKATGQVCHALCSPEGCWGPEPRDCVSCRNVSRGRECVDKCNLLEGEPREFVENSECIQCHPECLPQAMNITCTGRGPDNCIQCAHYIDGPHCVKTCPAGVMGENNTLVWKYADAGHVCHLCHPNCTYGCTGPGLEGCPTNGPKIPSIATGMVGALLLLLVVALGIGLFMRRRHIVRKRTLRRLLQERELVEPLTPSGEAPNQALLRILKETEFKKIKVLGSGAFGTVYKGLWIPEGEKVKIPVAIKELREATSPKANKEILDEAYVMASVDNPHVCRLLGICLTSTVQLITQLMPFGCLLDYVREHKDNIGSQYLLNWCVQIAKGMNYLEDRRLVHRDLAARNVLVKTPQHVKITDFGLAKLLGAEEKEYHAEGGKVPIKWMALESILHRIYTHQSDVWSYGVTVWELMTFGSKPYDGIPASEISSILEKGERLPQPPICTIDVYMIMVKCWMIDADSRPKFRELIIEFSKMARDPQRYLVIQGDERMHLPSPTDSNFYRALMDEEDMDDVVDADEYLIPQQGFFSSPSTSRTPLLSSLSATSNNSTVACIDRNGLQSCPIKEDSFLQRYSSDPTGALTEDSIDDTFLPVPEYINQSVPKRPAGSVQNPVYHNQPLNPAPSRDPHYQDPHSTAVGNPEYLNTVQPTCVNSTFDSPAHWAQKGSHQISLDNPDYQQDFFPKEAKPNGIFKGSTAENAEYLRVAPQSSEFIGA
Sequence of Mitogen-activated protein kinase 3 (P27361 whole entry): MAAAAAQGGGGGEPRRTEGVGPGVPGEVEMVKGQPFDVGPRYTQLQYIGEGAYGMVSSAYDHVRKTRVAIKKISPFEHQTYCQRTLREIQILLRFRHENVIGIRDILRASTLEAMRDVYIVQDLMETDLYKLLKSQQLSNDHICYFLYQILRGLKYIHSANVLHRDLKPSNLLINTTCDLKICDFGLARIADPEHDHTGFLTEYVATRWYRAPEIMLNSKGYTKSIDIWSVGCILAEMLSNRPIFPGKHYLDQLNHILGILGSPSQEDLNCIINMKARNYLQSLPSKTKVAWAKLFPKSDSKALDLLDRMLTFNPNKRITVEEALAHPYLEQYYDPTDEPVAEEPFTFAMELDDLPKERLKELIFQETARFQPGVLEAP
Sequence of Macrophage colony-stimulating factor 1 receptor (Homo sapiens) (P07333 whole entry): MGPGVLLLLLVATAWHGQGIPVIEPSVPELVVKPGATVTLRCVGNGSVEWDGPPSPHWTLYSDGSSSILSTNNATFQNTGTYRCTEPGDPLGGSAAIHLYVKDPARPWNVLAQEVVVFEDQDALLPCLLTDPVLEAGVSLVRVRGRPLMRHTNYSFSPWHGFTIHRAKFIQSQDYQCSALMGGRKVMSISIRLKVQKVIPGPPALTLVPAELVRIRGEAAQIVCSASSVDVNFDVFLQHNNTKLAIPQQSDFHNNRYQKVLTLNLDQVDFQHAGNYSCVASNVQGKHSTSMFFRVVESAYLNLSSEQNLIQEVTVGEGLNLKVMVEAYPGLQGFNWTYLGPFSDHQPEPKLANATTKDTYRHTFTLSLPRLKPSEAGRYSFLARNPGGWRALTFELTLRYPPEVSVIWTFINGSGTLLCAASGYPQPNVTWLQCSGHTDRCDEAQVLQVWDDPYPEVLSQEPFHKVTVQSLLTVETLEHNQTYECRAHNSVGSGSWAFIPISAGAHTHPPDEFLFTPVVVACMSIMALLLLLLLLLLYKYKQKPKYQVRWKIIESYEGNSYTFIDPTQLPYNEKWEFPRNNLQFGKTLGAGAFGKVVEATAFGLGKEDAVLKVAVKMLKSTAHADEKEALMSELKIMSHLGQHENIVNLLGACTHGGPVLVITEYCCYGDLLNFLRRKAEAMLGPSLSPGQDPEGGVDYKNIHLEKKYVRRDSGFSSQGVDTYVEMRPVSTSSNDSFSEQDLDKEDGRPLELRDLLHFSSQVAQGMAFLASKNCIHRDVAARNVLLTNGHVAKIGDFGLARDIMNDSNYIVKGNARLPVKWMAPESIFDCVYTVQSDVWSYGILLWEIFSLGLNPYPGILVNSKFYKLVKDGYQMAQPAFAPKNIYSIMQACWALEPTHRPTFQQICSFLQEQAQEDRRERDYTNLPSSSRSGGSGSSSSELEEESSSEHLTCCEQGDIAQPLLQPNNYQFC
Sequence of Tyrosine-protein kinase Srms (Homo sapiens) (Q9H3Y6 whole entry): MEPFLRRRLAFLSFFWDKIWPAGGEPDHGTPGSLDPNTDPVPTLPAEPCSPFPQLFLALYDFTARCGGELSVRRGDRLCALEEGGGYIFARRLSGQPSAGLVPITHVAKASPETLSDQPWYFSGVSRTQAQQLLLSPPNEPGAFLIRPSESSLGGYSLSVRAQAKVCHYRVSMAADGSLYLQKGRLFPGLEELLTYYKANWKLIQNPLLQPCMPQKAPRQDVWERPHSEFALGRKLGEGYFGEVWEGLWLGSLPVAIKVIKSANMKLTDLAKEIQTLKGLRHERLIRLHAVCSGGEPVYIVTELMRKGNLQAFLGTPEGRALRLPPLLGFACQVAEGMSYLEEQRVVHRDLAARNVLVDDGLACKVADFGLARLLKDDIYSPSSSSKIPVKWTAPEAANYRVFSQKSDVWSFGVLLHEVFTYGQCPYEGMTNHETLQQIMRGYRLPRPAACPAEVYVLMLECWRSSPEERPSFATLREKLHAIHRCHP

SMILES: CN(C)C/C=C/C(=O)Nc1ccc(C(=O)N2CCCC(Nc3ncc(Cl)c(-c4c[nH]c5ccccc45)n3)C2)cc1 (stereo not given)
- % of control [1]: 99%

- % of inhibition [2]: 2.83%
SMILES: CC[C@@H]1[C@H](F)C(=O)N[C@@H]1COc1nccc2cc(C(N)=O)c(OC)cc12 [ZIMLOVISERTIB]

- % of inhibition [3]: -5.84%
SMILES: Cn1cc(-n2cnc3c(NCc4nc5cc(Cl)c(Cl)cc5[nH]4)nc(N4CCOCC4)nc32)cn1

SMILES: COCC(=O)NC/C=C/c1ccc2ncnc(Nc3ccc(Oc4ccc(C)nc4)c(C)c3)c2c1 [CP-724714]
- % of control (SRSF protein kinase 1): 100%

SMILES: COc1cc(N(C)c2ccnc3ccc(C(F)(F)F)cc23)cc(OC)c1OC
- % binding [4]: 88%

- % of control ([5]; at 1 µM): 96%
- % of control ([5]; at 5 µM): 97%
SMILES: C=CC(=O)Nc1cccc(C(=O)Nc2ccc(Nc3cc(-c4[nH]c(SC)nc4C)ccn3)cc2)c1

SMILES: CCC(=O)N1CCN(c2ccc(-n3c(=O)ccc4cnc5ccc(-c6cnc7ccccc7c6)cc5c43)cc2C(F)(F)F)CC1
- % of control [6]: 24%
- % of control [7]: 100%
- % of control [8]: 85%

- % of inhibition [9]: -7%
SMILES: Cc1ccc(-c2ccc3c(ccc4sc5c(c43)NC[C@@H](C)NC5=O)n2)cn1

SMILES: CN(C)CCOc1ccc(-c2nc(-c3ccncc3)c(-c3ccc4c(c3)CC/C4=N\O)[nH]2)cc1
- % of control [10]: 59%
- % of control [11]: 70%
- % of control [12]: 93%
- % of control [13]: 54%
- % of control [14]: 34%
- % of control [15]: 34%
- % of control [16]: 100%
- % of control [17]: 95%
- % of control [18]: 81%
